Consider eleven compounds from patent US20210317140A1, “Heterocyclic Compounds and Methods of Use” (MEDIVATION TECHNOLOGIES, INC, priority 2013, published 2021).

One assay concerns the target T1, PI3Kδ (Homo sapiens, UniProt O00329).
T1 construct: purchased Reaction Biology Corporation
Briefly: PI3Kδ kinase assay (HTRF, PIP3 detection). The assay is classed as biochemical. Particulars: for PI3Kδ @ 0.01 μM (% Inh): 0.01 μM compound; for PI3Kδ @ 0.01 μM (% Inh) / PI3Kδ @ 0.1 μM (% Inh): 10 μM ATP; for PI3Kδ @ 0.1 μM (% Inh): 0.1 μM compound; for IC50: 10 dose IC50, 10 μM ATP. The essentials: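 PIP3 formation read by loss of energy transfer as it displaces biotin-PIP3 from a Eu anti-GST/GST-PH/streptavidin-APC complex, calibrated against PIP3 standards.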
For orientation: In TR-FRET formats the signal depends on donor and acceptor labels being close together.

The next assay deals with CD69+B220+ cells. Briefly: B cell activation assay (IgD-stimulated splenocytes, CD69+B220+ cells by FACS). The assay is classed as cell-based. Particulars: mouse splenocytes, IgD 3 μg/mL, 4 h; for CD69 @ 100 nM (% Inh): 100 nM compound. The method, then:
1 Female mouse approximately 2 months old was euthanized with CO2 and the spleen removed. The tissue was homogenized with a polished glass microscope slide. The cells were collected in 5 mL complete medium (RPMI+10% FBS+pen/strep), placed in a 15 mL falcon tube and centrifuged at 500×g for 5 min. The supernatant was discarded and the pellet was resuspended in 3 mL of ACK lysis buffer (NH4Cl 0.17M, KHCO3 10 mM, EDTA-Na2 0.1 mM, pH 7.2), incubated at 37° C. for 5 min. 2 mL complete medium was added and the mixture centrifuged at 500×g for 5 min. The supernatant was discarded and the pellet resuspended in 1 mL complete medium. The mixture was passed through a […] cell strainer and collect in 50 mL falcon tube. Enough medium was added to have a total of 10 mL. The cells were counted and seeded in 24 or 48-well plate in 1 mL complete medium at 10^6 cells/mL. The plate was placed in a 37° C. incubator for 15 min. The cells were treated for 30 min at 37° C. with 100 nM test compound dissolved in 100% DMSO. 3 μL IgD (Accurate chemical and scientific corp.) was added at a final concentration of 3 μg/mL and the mixture incubated at 37° C. for 4 h. The cells were collected in 1.5 mL eppendorf tubes, centrifuged at 500×g for 5 min and then resuspended in 100 μL of PBS+2% FBS. The following antibodies were added: α-B220 PE (pharmingen #553090), α-CD69 APC (pharmingen #60689), live/dead fixable aqua dead cell stain kit (life technologies #L34957) all at 1:300, and the mixture incubated for 15 min at 4° C. in the dark. To this was added 900 μL of PBS+2% FBS and the mixture centrifuged at 500×g for 5 min. The supernatant was removed and the pellet resuspended in 300 μL of PBS+2% FBS and mixed well. The mixture was transferred to a cytometer tube. The samples were run in the FACS Canto II cytometer and quantified by the number of CD69+B220+ cells as a percentage of the total number of B220+ alive cells.
On the technique in general: A flow cytometer gives signals particle by particle.

The target in another assay is T2, BTK (Homo sapiens, UniProt Q06187).
T2 construct: purchased Reaction Biology Corporation
Briefly: BTK kinase assay (HotSpot, 33P ATP). The class given is biochemical. Particulars: for BTK @ 0.01 μM (% Inh): 0.01 μM compound; for BTK @ 0.01 μM (% Inh) / BTK @ 0.1 μM (% Inh): 10 μM ATP; for BTK @ 0.1 μM (% Inh): 0.1 μM compound. The procedure, abridged: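 In 20 mM Hepes (pH 7.5) with 10 mM MgCl2, 1 mM EGTA, 0.1 mM Na3VO4, 2 mM DTT, 0.02% Brij35, 0.02 mg/mL BSA and 1% DMSO, kinase and substrate were exposed to ten compound doses for 15–20 min.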

Structures are written as SMILES.

T2 sequence (Q06187 whole entry): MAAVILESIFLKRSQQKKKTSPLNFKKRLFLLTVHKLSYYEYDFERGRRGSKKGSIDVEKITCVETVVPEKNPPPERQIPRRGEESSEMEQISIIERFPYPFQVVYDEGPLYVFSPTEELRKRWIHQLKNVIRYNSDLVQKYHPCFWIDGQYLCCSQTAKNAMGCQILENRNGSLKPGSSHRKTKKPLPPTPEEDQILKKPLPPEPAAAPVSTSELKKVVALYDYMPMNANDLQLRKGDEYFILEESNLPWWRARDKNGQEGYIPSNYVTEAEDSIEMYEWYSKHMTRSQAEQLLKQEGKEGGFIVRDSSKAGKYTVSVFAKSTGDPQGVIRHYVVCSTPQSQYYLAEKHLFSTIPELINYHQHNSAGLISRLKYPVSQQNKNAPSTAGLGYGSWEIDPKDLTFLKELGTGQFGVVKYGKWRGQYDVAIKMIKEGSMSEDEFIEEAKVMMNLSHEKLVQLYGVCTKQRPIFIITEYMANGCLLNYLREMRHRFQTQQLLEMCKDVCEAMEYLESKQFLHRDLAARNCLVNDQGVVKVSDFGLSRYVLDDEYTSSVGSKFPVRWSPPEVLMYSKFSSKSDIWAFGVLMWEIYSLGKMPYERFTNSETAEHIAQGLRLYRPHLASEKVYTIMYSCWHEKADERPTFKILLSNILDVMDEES
T1 sequence (O00329 whole entry): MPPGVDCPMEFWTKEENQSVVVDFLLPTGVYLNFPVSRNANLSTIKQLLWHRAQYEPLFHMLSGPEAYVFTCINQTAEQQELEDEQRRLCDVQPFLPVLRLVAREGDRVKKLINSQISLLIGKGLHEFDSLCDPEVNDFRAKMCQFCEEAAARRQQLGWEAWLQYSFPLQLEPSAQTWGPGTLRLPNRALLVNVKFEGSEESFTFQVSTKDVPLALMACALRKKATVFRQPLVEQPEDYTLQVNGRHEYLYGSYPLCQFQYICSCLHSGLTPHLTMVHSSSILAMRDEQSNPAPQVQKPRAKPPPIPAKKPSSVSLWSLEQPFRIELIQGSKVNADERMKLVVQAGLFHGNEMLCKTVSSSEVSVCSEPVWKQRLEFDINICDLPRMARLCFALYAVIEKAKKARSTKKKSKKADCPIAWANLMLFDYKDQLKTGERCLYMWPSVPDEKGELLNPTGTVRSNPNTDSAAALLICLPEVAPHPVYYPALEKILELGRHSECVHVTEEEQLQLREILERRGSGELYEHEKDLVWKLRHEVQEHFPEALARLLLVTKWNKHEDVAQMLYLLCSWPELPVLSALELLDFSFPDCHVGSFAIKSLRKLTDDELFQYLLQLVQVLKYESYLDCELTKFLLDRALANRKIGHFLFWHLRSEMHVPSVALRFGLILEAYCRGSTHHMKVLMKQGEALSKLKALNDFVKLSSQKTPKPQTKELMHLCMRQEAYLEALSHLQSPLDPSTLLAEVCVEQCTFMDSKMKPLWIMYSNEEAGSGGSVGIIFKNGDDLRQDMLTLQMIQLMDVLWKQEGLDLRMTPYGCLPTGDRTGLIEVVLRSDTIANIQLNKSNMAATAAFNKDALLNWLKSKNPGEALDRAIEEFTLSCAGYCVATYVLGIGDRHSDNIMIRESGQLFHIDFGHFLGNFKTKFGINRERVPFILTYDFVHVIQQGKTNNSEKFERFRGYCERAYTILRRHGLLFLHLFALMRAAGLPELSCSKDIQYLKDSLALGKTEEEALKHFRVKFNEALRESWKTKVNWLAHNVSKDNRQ
T1 sequence (P27986 whole entry partner): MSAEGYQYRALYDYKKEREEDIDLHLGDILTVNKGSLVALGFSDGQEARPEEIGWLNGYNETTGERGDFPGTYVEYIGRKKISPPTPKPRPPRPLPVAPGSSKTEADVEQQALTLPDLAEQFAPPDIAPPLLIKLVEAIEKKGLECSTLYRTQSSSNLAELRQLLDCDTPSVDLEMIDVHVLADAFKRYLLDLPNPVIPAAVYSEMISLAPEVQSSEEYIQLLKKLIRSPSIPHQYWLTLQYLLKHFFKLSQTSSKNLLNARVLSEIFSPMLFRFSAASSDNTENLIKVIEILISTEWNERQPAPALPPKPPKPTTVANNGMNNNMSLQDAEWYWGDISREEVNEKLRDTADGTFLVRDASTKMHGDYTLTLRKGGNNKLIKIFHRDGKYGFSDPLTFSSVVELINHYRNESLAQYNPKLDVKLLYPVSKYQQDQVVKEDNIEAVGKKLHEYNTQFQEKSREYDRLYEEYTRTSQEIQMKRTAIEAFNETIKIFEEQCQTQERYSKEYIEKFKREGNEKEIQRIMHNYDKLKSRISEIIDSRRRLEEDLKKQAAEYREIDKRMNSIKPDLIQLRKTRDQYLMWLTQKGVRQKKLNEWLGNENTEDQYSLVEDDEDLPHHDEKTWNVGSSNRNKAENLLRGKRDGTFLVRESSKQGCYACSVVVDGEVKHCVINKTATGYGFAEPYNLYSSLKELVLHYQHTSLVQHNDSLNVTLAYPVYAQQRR

`Nc1cc(-c2nn(C3CCc4ccccc4C3)c3ncnc(N)c23)cc(F)c1F` (centres unmarked) [compound 122, 3-(3-amino-4,5-difluorophenyl)-1-(1,2,3,4-tetrahydronaphthalen-2-yl)-1H-pyrazolo[3,4-d]pyrimidin-4-amine]: at PI3Kδ, the “PI3Kδ @ 0.01 μM (% Inh)” value was −3.68 % Inh and the “PI3Kδ @ 0.1 μM (% Inh)” value was 25.32 % Inh. For the same compound, the “CD69 @ 100 nM (% Inh)” value in the assay with CD69+B220+ cells is reported as 2.58 ± 4.93 (n = 3) % Inh. Moreover, at BTK, the “BTK @ 0.01 μM (% Inh)” value came to 12.72 % Inh and the “BTK @ 0.1 μM (% Inh)” value came to 53.15 % Inh.

`Nc1ncnc2c1c(-c1cc(O)c(F)c(C(F)(F)F)c1)nn2C1CCc2ccccc2C1` (centres unmarked) [compound 123, 5-[4-amino-1-(1,2,3,4-tetrahydronaphthalen-2-yl)-1H-pyrazolo[3,4-d]pyrimidin-3-yl]-2-fluoro-3-(trifluoromethyl)phenol]: at PI3Kδ, the “PI3Kδ @ 0.01 μM (% Inh)” value is on record as 59.11 % Inh and the “PI3Kδ @ 0.1 μM (% Inh)” value was found to be 88.87 % Inh. In the assay on CD69+B220+ cells, the “CD69 @ 100 nM (% Inh)” value is 29.22 ± 4.64 (n = 3) % Inh. Also, at BTK, the “BTK @ 0.01 μM (% Inh)” value was 1.82 % Inh and the “BTK @ 0.1 μM (% Inh)” value is recorded as −0.78 % Inh.

Take `Nc1ncnc2c1c(-c1cc(F)c3c(c1)NCCO3)nn2C1CCc2ccccc2C1` (centres unmarked) [compound 124, 3-(8-fluoro-3,4-dihydro-2H-1,4-benzoxazin-6-yl)-1-(1,2,3,4-tetrahydronaphthalen-2-yl)-1H-pyrazolo[3,4-d]pyrimidin-4-amine]: on PI3Kδ, the “PI3Kδ @ 0.01 μM (% Inh)” value is 8.34 % Inh and the “PI3Kδ @ 0.1 μM (% Inh)” value came out at 52.39 % Inh. Also, the “CD69 @ 100 nM (% Inh)” value in the assay with CD69+B220+ cells is recorded as 14.44 ± 2.64 (n = 3) % Inh. On BTK, the “BTK @ 0.01 μM (% Inh)” value is recorded as 4.47 % Inh and the “BTK @ 0.1 μM (% Inh)” value stood at 34.18 % Inh.

Consider `Nc1ncnn2c(C3Cc4ccccc4C3)cc(-c3cc(O)c(F)c(F)c3)c12` [compound 125, 5-[4-amino-7-(2,3-dihydro-1H-inden-2-yl)pyrrolo[2,1-f][1,2,4]triazin-5-yl]-2,3-difluorophenol], for which, at PI3Kδ, the “PI3Kδ @ 0.01 μM (% Inh)” value was determined as 22.51 % Inh; the “PI3Kδ @ 0.1 μM (% Inh)” value stood at 62.27 % Inh; the IC50 (as a rule, the midpoint of a concentration-inhibition curve) came out at 0.0328 µM. The “CD69 @ 100 nM (% Inh)” value in the assay on CD69+B220+ cells was 2.68 ± 2.32 (n = 3) % Inh. Moreover, at BTK, the “BTK @ 0.01 μM (% Inh)” value is 39.05 % Inh and the “BTK @ 0.1 μM (% Inh)” value is reported as 80.31 % Inh. At BTK (10 dose IC50, 10 μM ATP), this compound showed an IC50 of 0.0142 µM.

Consider `Nc1ncnc2c1c(-c1cc(O)c(F)c(F)c1)nn2C1CCc2ncccc21` (centres unmarked) [compound 126, 5-(4-amino-1-{5H,6H,7H-cyclopenta[b]pyridin-5-yl}-1H-pyrazolo[3,4-d]pyrimidin-3-yl)-2,3-difluorophenol], for which, on PI3Kδ, the “PI3Kδ @ 0.01 μM (% Inh)” value worked out at 4.71 % Inh and the “PI3Kδ @ 0.1 μM (% Inh)” value worked out at 2.3 % Inh. Moreover, the “CD69 @ 100 nM (% Inh)” value with CD69+B220+ cells is 12.35 ± 7.52 (n = 3) % Inh. On BTK, the “BTK @ 0.01 μM (% Inh)” value came out at 8.16 % Inh and the “BTK @ 0.1 μM (% Inh)” value came out at 8.18 % Inh.

As for `Nc1ncnc2c1c(-c1cc(O)c(F)c(F)c1)nn2C1Cc2ccc(F)cc2C1` (centres unmarked) [compound 128, 5-[4-amino-1-(5-fluoro-2,3-dihydro-1H-inden-2-yl)-1H-pyrazolo[3,4-d]pyrimidin-3-yl]-2,3-difluorophenol], at PI3Kδ, the “PI3Kδ @ 0.01 μM (% Inh)” value was found to be 56.4 % Inh and the “PI3Kδ @ 0.1 μM (% Inh)” value came out at 91.22 % Inh. Besides, the “CD69 @ 100 nM (% Inh)” value in the assay with CD69+B220+ cells was 49.29 ± 5.74 (n = 3) % Inh. Also, at BTK, the “BTK @ 0.01 μM (% Inh)” value stood at 19.98 % Inh and the “BTK @ 0.1 μM (% Inh)” value came out at 63.94 % Inh.

Consider `Nc1ncnc2c1c(-c1cc(F)c3c(c1)NC(=O)CO3)nn2C1Cc2ccccc2C1` [compound 129, 6-[4-amino-1-(2,3-dihydro-1H-inden-2-yl)-1H-pyrazolo[3,4-d]pyrimidin-3-yl]-8-fluoro-3,4-dihydro-2H-1,4-benzoxazin-3-one], for which, on PI3Kδ, the “PI3Kδ @ 0.01 μM (% Inh)” value was 8.3 % Inh and the “PI3Kδ @ 0.1 μM (% Inh)” value is 19.42 % Inh. Also, the “CD69 @ 100 nM (% Inh)” value in the assay on CD69+B220+ cells was 12.5 ± 13.16 (n = 3) % Inh. Further, at BTK, the “BTK @ 0.01 μM (% Inh)” value came out at 6.57 % Inh and the “BTK @ 0.1 μM (% Inh)” value is 18.99 % Inh.

Take `N#Cc1cc(-c2nn(C3CCc4ccccc4C3)c3ncnc(N)c23)cc(O)c1F` (centres unmarked) [compound 130, 5-[4-amino-1-(1,2,3,4-tetrahydronaphthalen-2-yl)-1H-pyrazolo[3,4-d]pyrimidin-3-yl]-2-fluoro-3-hydroxybenzonitrile]: at PI3Kδ, the “PI3Kδ @ 0.01 μM (% Inh)” value is 53.08 % Inh, the “PI3Kδ @ 0.1 μM (% Inh)” value is recorded as 90.11 % Inh and half-maximal inhibition (IC50) was put at 0.000269 µM. In the assay on CD69+B220+ cells, the “CD69 @ 100 nM (% Inh)” value was 67.53 ± 15.54 (n = 3) % Inh. Further, the 50% inhibitory concentration (IC50) with CD69+B220+ cells (Splenocyte) was found to be 0.1045 ± 0.0007 µM. Also, at BTK, the “BTK @ 0.01 μM (% Inh)” value is −1.03 % Inh and the “BTK @ 0.1 μM (% Inh)” value was −0.64 % Inh.

In the case of `NC(=O)c1cc(-c2nn(C3CCc4ccccc4C3)c3ncnc(N)c23)cc(O)c1F` (centres unmarked) [compound 131, 5-[4-amino-1-(1,2,3,4-tetrahydronaphthalen-2-yl)-1H-pyrazolo[3,4-d]pyrimidin-3-yl]-2-fluoro-3-hydroxybenzamide], at PI3Kδ, the “PI3Kδ @ 0.01 μM (% Inh)” value is 13.11 % Inh and the “PI3Kδ @ 0.1 μM (% Inh)” value is reported as 53.68 % Inh. Further, the “CD69 @ 100 nM (% Inh)” value in the assay with CD69+B220+ cells was 15.73 ± 14.11 (n = 3) % Inh. Besides, on BTK, the “BTK @ 0.01 μM (% Inh)” value was −2.45 % Inh and the “BTK @ 0.1 μM (% Inh)” value is recorded as 0.17 % Inh.

`NC(=O)c1cc(-c2nn(C3Cc4ccccc4C3)c3ncnc(N)c23)cc(O)c1F` [compound 132, 5-[4-amino-1-(2,3-dihydro-1H-inden-2-yl)-1H-pyrazolo[3,4-d]pyrimidin-3-yl]-2-fluoro-3-hydroxybenzamide]: at PI3Kδ, the “PI3Kδ @ 0.01 μM (% Inh)” value is 13.73 % Inh and the “PI3Kδ @ 0.1 μM (% Inh)” value is listed as 56.84 % Inh. Besides, the “CD69 @ 100 nM (% Inh)” value in the assay with CD69+B220+ cells is listed as 27.67 ± 13.46 (n = 3) % Inh. For the same compound, at BTK, the “BTK @ 0.01 μM (% Inh)” value worked out at 0.44 % Inh and the “BTK @ 0.1 μM (% Inh)” value is 5.3 % Inh.

On to `NCc1cccc(-c2nn(C3Cc4ccccc4C3)c3ncnc(N)c23)c1` [compound 133, 3-[3-(aminomethyl)phenyl]-1-(2,3-dihydro-1H-inden-2-yl)-1H-pyrazolo[3,4-d]pyrimidin-4-amine], for which, at PI3Kδ, the “PI3Kδ @ 0.01 μM (% Inh)” value is on record as −1.05 % Inh and the “PI3Kδ @ 0.1 μM (% Inh)” value is 1.17 % Inh. Moreover, in the assay on CD69+B220+ cells, the “CD69 @ 100 nM (% Inh)” value is recorded as 6.8 ± 14.52 (n = 3) % Inh. Besides, on BTK, the “BTK @ 0.01 μM (% Inh)” value is given as −0.81 % Inh and the “BTK @ 0.1 μM (% Inh)” value is given as −0.94 % Inh.
